{
  "source": "paper PMC9631343",
  "about": "(ACS Bio & Med Chem Au, 2022)",
  "test_system": "SARS-CoV-2 (Omicron variant, B.1.1.529.1/BA.1 sublineage)",
  "type": "cell-based",
  "data": [
    {"smiles": "OC[C@H]1O[C@@H](n2cnc3c(N[C@@H]4CCOC4)ncnc32)[C@H](O)[C@@H]1O", "note": "[tecadenoson]", "values": [
      {"measurement": "100% CPE inhibitory concentration (CPEIC100)", "result": "7.65 ± 0.25", "unit": "µM"}
    ]}
  ]
}
